Assay results as given in patent US8399399B2, “3- and 4-methyl dodecenal and their use in fragrance and flavour compositions” (Givaudan SA, priority 2005, dated 2013).

Experiment: Determination of GC-odour threshold concentration (gas chromatograph with sniff port, panel of trained evaluators)
Conditions: for odour threshold concentration, geometric mean: GC sniff port, absolute amount of compound delivered at the sniff port, group of 5 panelists, identical conditions; for odour threshold of the (Z)-isomer compared to its corresponding (E)-isomer (times higher): pure (Z)-isomer versus pure (E)-isomer
Experimental: The odour threshold concentration is defined as the lowest concentration of the vapour of an odourant material in the air which can be detected by smell and can be measured by standard methods known in the art.
According to standard procedures known to the person skilled in the art, threshold concentrations for volatile perfumery compounds are determined on a gas chromatograph equipped with a sniff port by a panel of trained evaluators. The lowest concentration smelled by each panellist is recorded as the individual threshold concentration expressed in ng (absolute amount of compound delivered at the sniff port).
Under identical conditions the odour threshold concentration for (E)-2-methyl-4-dodecenal (prior art), (E)-3-methyl-4-dodecenal and (E)-4-methyl-4-dodecenal was measured and compared by a group of 5 panelists.

SMILES | odour threshold concentration, geometric mean [ng] | odour threshold of the (Z)-isomer compared to its corresponding (E)-isomer (times higher) [times]
CCCCCCC/C=C/C(C)CC=O (centres unmarked) [(E)-3-methyl-4-dodecenal] | 1.0 | –
CCCCCCC/C=C(/C)CCC=O [(Z)-4-methyl-4-dodecenal, (Z)-4-Methyl-4-dodecenal] | – | 20
CCCCCCC/C=C\C(C)CC=O (centres unmarked) [(Z)-3-methyl-4-dodecenal] | – | 5
CCCCCCC/C=C(\C)CCC=O [(E)-4-methyl-4-dodecenal, (E)-4-Methyl-4-dodecenal] | 0.05 | –
CCCCCCC/C=C/CC(C)C=O (centres unmarked) [(E)-2-methyl-4-dodecenal, reference compound] | 3.2 | –
